Source: patent US20030113833A1, “Device for measuring extracellular potential, method of measuring extracellular potential by using the same and apparatus for quickly screening drug provided therewith” (priority 2001, published 2003)

Experiments:
Assay type in all cases: cell-based
[1] = system: Neurons prepared from the cerebral cortex of gestation day 17 SD rat embryos
[2] = system: ion channels of a Lymnaea Stagnalis neuron; assay: Extracellular recording, average of standard deviations of the electrical signal (Example 3); settings: 0, 0.1, 0.3, 1, 3, 10, 30 and 100 μM in artificial cerebrospinal fluid; 10 seconds of data
Description: The apparatus having the configuration shown in FIG. 13 was used to measure an action of a neuron to the chemical substance Carbachol, where the neuron was prepared from Lymnaea Stagnalis. Carbachol is a chemical substance known as an analog of the neurotransmitter Acetylcholine. Carbachol (manufactured by Sigma) was dissolved in artificial cerebrospinal fluid to concentrations of 0, 0.1, 0.3, 1, 3, 10, 30 and 100 μM. The solutions having these concentrations were used to measure an electrical signal emitted by the neuron. For each Carbachol concentration, time-series data for 10 seconds was obtained from the measurement section (signal source) 101 comprising the sensor substrate, and was sampled at intervals of 100 miliseconds, and the standard deviation of the sampling data was calculated. The average of the standard deviation was plotted in FIG. 17.

[3] = system: ion channels of a Lymnaea Stagnalis neuron; assay: Extracellular recording, normal distribution of standard deviations before and after application (Example 4); settings: after applying 50 μM; 0.478 before the application
Excerpt: FIG. 14 is a conceptual diagram showing a configuration of an apparatus for detecting an action of a subject chemical substance on a biological sample according to the present invention. The apparatus is the same as the apparatus of FIG. 13, except that a normal distribution approximation section 103, an average/half-width calculation section 106 and an activity categorization section 109 are employed in place of the average calculation section 105 and the activity calculation section 108. Communications between each section are indicated by a dashed line or a solid line in FIG. 13. […] Note that similar to the apparatus of FIG. 13, the unit standard deviation calculation section 102, the normal distribution approximation section 103, the average/half-width calculation section 106 and the activity categorization section 109 may be representatively software programs which are recorded in a hard disk of a computer. […] Before and after 50 μM-concentration Carbachol was applied to a Lymnaea Stagnalis neuron, signals were obtained from the measurement section (signal source) 101, and the standard deviation of the signals was calculated in a manner similar to that of Example 1. […]

| Compound | frequency at which the noise has a maximal value [1] | noise intensity in the absence of the Ca antagonist relative to that in its presence [1] | average of the standard deviation every 100 miliseconds versus concentration [2] | average of the normal distribution of standard deviation values every 5 miliseconds [3] |
| --- | --- | --- | --- | --- |
| ω-conotoxin GVIA [Ca antagonist] | about 4 Hz | about 1.5 times | – | – |
| C[N+](C)(C)CCOC(N)=O [Carbachol] | – | – | the greater the Carbachol concentration, the greater the average of the standard deviation every 100 miliseconds | 0.703 |
